Literature values, collected in patent publication US20070172525A1, “Anti-diabetic combinations” (priority 2007, published 2007).

Legend:
[1] = oral
patients with T2DM [2] = system: patients with T2DM
patients with T2DM [3] = system: patients with T2DM; remark: listed apart in the source
patients with T2DM [4] = system: patients with T2DM; remark: listed apart in the source
[5] = monotherapy, 100 or 200 mg daily
[6] = sitagliptin 100 mg daily added to metformin

SMILES | Time to complete gastrointestinal absorption after ingestion [1] | Weight gain (patients with T2DM [2]; 24-week monotherapy studies) | HbA1C (patients with T2DM [2]; [5]) | Hypoglycemia (patients with T2DM [2]; [5]) | Patients achieved a HbA1C of <7% (patients with T2DM [3]; 24 weeks, sitagliptin 100 mg daily plus pioglitazone versus pioglitazone alone) | Mean HbA1C reduction (patients with T2DM [3]; sitagliptin 100 mg daily added to pioglitazone (30 or 45 mg daily), 24 weeks, mean HbA1C 8.1%) | Rates of hypoglycemia or weight gain relative to pioglitazone alone (patients with T2DM [3]; sitagliptin added to pioglitazone) | Patients achieving a HbA1C of <7% (patients with T2DM [4]; sitagliptin 100 mg daily added to at least 1,500 mg per day of metformin, mean HbA1C of 8%) | Fasting glucose (patients with T2DM [4]; [6]) | Mean placebo-subtracted reduction in HbA1C (patients with T2DM [4]; [6])
CN(C)C(=N)N=C(N)N [Conventional Metformin, Metformin] | ≤ 6 h | – | – | – | – | – | – | – | – | –
N[C@@H](CC(=O)N1CCn2c(nnc2C(F)(F)F)C1)Cc1cc(F)c(F)cc1F [Sitagliptin] | – | no significant weight gain | significantly reduced | no significant increase | 45.4% | 0.7% | not associated with increased rates | 47% | significant reductions | 0.65%
